Measured values: ChEMBL document CHEMBL4680150, “Design, synthesis and biological evaluation of vincamine derivatives as potential pancreatic β-cells protective agents for the treatment of type 2 diabetes mellitus” (Eur J Med Chem, 2020)
Active and inactive are the calls of the source. How the calls were made is not given here.

Columns and labels:
INS1(832/13) [1] = test: Cytoprotective activity in rat INS-1 832/13 cells assessed as inhibition of STZ-induced apoptosis at 20 uM incubated for 24 hrs by MTT assay relative to control; assay type: functional
INS1(832/13) [2] = test: Cytoprotective activity in rat INS-1 832/13 cells assessed as inhibition of STZ-induced apoptosis incubated for 24 hrs by MTT assay; assay type: functional, cell-based; details: INS-1 832/13, 24 h

| SMILES | Activity (INS1(832/13) [1]) | EC50 (INS1(832/13) [2]) [µM] |
| --- | --- | --- |
| CCCNC(=O)OCC1=C[C@]2(CC)CCCN3CCc4c(n1c1ccccc41)[C@@H]32 | Active | 5.85 |
| CCCCN(CCCC)C(=O)C1=C[C@]2(CC)CCCN3CCc4c(n1c1ccccc41)[C@@H]32 | inactive |  |
| CC[C@@]12C=C(COC(=O)NCCCO)n3c4c(c5ccccc53)CCN(CCC1)[C@H]42 | Active | 9.05 |
| CC[C@@]12C=C(C(N)=O)n3c4c(c5ccccc53)CCN(CCC1)[C@H]42 | inactive | 10.2 |
| CCC(=O)NCC1=C[C@]2(CC)CCCN3CCc4c(n1c1ccccc41)[C@@H]32 | Active | 3.02 |
| CC[C@@]12C=C(COC(=O)Nc3ccccc3)n3c4c(c5ccccc53)CCN(CCC1)[C@H]42 | inactive |  |
| CC[C@@]12C=C(C(=O)NCCO)n3c4c(c5ccccc53)CCN(CCC1)[C@H]42 | Active | 0.96 |
| CC[C@@]12C=C(CNC(N)=O)n3c4c(c5ccccc53)CCN(CCC1)[C@H]42 | inactive |  |
| CC[C@@]12C=C(COC(N)=O)n3c4c(c5ccccc53)CCN(CCC1)[C@H]42 | Active | 8.75 |
| CC[C@@]12C=C(C(=O)Nc3ccc(OC)cc3)n3c4c(c5ccccc53)CCN(CCC1)[C@H]42 | inactive |  |
| CCCC(=O)OCC1=C[C@]2(CC)CCCN3CCc4c(n1c1ccccc41)[C@@H]32 | Active | 3.77 |
| CC[C@@]12C=C(C(=O)NC)n3c4c(c5ccccc53)CCN(CCC1)[C@H]42 | Active | 0.66 |
| CCC(=O)OCC1=C[C@]2(CC)CCCN3CCc4c(n1c1ccccc41)[C@@H]32 | Active | 6.84 |
| CC[C@@]12C=C(COC(=O)C(C)C)n3c4c(c5ccccc53)CCN(CCC1)[C@H]42 | Active | 1.74 |
| CC[C@@]12C=C(CNC(=O)C(C)C)n3c4c(c5ccccc53)CCN(CCC1)[C@H]42 | Active | 7.2 |
| CC[C@@]12C=C(C(=O)N3CCCC3)n3c4c(c5ccccc53)CCN(CCC1)[C@H]42 | Active | 13.2 |
| CC[C@@]12C=C(C(=O)NCCCO)n3c4c(c5ccccc53)CCN(CCC1)[C@H]42 | Active | 10.2 |
| CC[C@@]12C=C(C(=O)N3CCCCC3)n3c4c(c5ccccc53)CCN(CCC1)[C@H]42 | Active | 4.89 |
| CC[C@@]12C=C(COC(=O)NC)n3c4c(c5ccccc53)CCN(CCC1)[C@H]42 | Active | 1.65 |
| CC[C@@]12C=C(C(=O)NC3CCCC3)n3c4c(c5ccccc53)CCN(CCC1)[C@H]42 | Active | 12.8 |
| CC[C@@]12C=C(COC(=O)c3ccccc3)n3c4c(c5ccccc53)CCN(CCC1)[C@H]42 | inactive |  |
| CC[C@@]12C=C(CNC(=O)NC)n3c4c(c5ccccc53)CCN(CCC1)[C@H]42 | inactive |  |
| CC[C@@]12C=C(COC(=O)NC(C)C)n3c4c(c5ccccc53)CCN(CCC1)[C@H]42 | Active | 10.8 |
| CC[C@@]12C=C(C(=O)N(C)C)n3c4c(c5ccccc53)CCN(CCC1)[C@H]42 | inactive |  |
| CCCN(CCC)C(=O)C1=C[C@]2(CC)CCCN3CCc4c(n1c1ccccc41)[C@@H]32 | Active | 7.1 |
